“And” between values parts separate entries of the source, which are not always exact repeats. Identical values can stand only once.
What was measured:
Type in all cases: in vivo
Settings in all cases: 20-21 days after application
[1] = system: junglerice, Echinochloa colonum (L.) LINK (ECHCO); assay: Foliar-applied greenhouse weed control, junglerice (ECHCO)
Description: (§1) The soil matrix was contained in plastic pots with a volume of 1 quart and a surface area of 83.6 cm^2. When required, to ensure good germination and healthy plants, a fungicide treatment and/or other chemical or physical treatment was applied. The plants were grown for 10-22 days in a greenhouse with an approximate 14 h photoperiod which was maintained at about 29° C. during the day and 26° C. during the night. Nutrients (Peters Excel® 15-5-15 5-Ca 2-Mg and iron chelate) were applied in the irrigation solution as needed and water was added on a regular basis. Supplemental lighting was provided with overhead metal halide 1000-Watt lamps as necessary. The plants were employed for testing when they reached the second or third true leaf stage. […] The compounds were applied on an active ingredient basis. […] All stock solutions and applications solutions were visually inspected for compound compatibility prior to application. […] Control plants were sprayed in the same manner with the solvent blank. The treated plants and control plants were placed in a greenhouse as described above and watered by sub-irrigation to prevent wash-off of the test compounds. […] Colby's equation was used to determine the herbicidal effects expected from the mixtures. The combinations tested, ratios employed, plant species tested, and results are included in Table 1 below.

[2] = system: yellow nutsedge, Cyperus esculentus L. (CYPES); assay: Foliar-applied greenhouse weed control, yellow nutsedge (CYPES)
Description: as §1

[3] = system: large crabgrass, Digitaria sanguinalis (L.) Scop. (DIGSA); assay: Foliar-applied greenhouse weed control, large crabgrass (DIGSA)
Description: as §1

[4] = system: ivyleaf morning glory, Ipomoea hederacea (L.) Jacq. (IPOHE); assay: Foliar-applied greenhouse weed control, ivyleaf morning glory (IPOHE)
Description: as §1

[5] = system: barnyard grass, Echinochloa crus-galli (L.) P. Beauv. (ECHCG); assay: Foliar-applied greenhouse weed control, barnyard grass (ECHCG)
Description: as §1

SMILES: COc1c(Cl)ccc(-c2nc(C(=O)OCc3ccccc3)c(Cl)c(N)c2F)c1F [Formula (II) benzyl ester, benzyl ester of 4-amino-3-chloro-5-fluoro-6-(4-chloro-2-fluoro-3-methoxy-phenyl) pyridine-2-carboxylic acid]
- Formula (II) benzyl ester % Visual Weed Control ([1]; 8 g ai/ha alone): 50%
- Formula (II) benzyl ester % Visual Weed Control ([1]; 16 g ai/ha alone): 50%
- Formula (II) benzyl ester % Visual Weed Control ([1]; 32 g ai/ha alone): 80%
- Formula (II) benzyl ester % Visual Weed Control ([2]; 8 g ai/ha alone): 70%
- Formula (II) benzyl ester % Visual Weed Control ([2]; 16 g ai/ha alone): 88%
- Formula (II) benzyl ester % Visual Weed Control ([2]; 32 g ai/ha alone): 73%
- Formula (II) benzyl ester % Visual Weed Control ([3]; 8 g ai/ha alone): 13% and 20%
- Formula (II) benzyl ester % Visual Weed Control ([3]; 16 g ai/ha alone): 23% and 28%
- Formula (II) benzyl ester % Visual Weed Control ([3]; 32 g ai/ha alone): 30% and 33%
- Formula (II) benzyl ester % Visual Weed Control ([4]; 16 g ai/ha alone): 18% and 25%
- Formula (II) benzyl ester % Visual Weed Control ([4]; 32 g ai/ha alone): 35% and 48%
- Formula (II) benzyl ester % Visual Weed Control ([5]; 8 g ai/ha alone): 40% and 63%
- Formula (II) benzyl ester % Visual Weed Control ([5]; 16 g ai/ha alone): 63% and 78%
- Formula (II) benzyl ester % Visual Weed Control ([5]; 32 g ai/ha alone): 83% and 90%

SMILES: CC1=CC1 [1-methylcyclopropene, reference compound]
- 1-methylcyclopropene % Visual Weed Control ([1]; 2 g ai/ha alone): 0%
- 1-methylcyclopropene % Visual Weed Control ([1]; 4 g ai/ha alone): 0%
- 1-methylcyclopropene % Visual Weed Control ([2]; 5 g ai/ha alone): 0%
- 1-methylcyclopropene % Visual Weed Control ([3]; 2 g ai/ha alone): 0%
- 1-methylcyclopropene % Visual Weed Control ([3]; 4 g ai/ha alone): 0%
- 1-methylcyclopropene % Visual Weed Control ([3]; 5 g ai/ha alone): 0%
- 1-methylcyclopropene % Visual Weed Control ([3]; 10 g ai/ha alone): 0%
- 1-methylcyclopropene % Visual Weed Control ([3]; 20 g ai/ha alone): 0%
- 1-methylcyclopropene % Visual Weed Control ([4]; 2 g ai/ha alone): 0%
- 1-methylcyclopropene % Visual Weed Control ([4]; 4 g ai/ha alone): 0%
- 1-methylcyclopropene % Visual Weed Control ([4]; 5 g ai/ha alone): 0%
- 1-methylcyclopropene % Visual Weed Control ([4]; 10 g ai/ha alone): 0%
- 1-methylcyclopropene % Visual Weed Control ([5]; 2 g ai/ha alone): 0%
- 1-methylcyclopropene % Visual Weed Control ([5]; 4 g ai/ha alone): 0%
- 1-methylcyclopropene % Visual Weed Control ([5]; 5 g ai/ha alone): 0%
- 1-methylcyclopropene % Visual Weed Control ([5]; 10 g ai/ha alone): 0%
- 1-methylcyclopropene % Visual Weed Control ([5]; 20 g ai/ha alone): 0%

Reference: patent publication US9854801B2, “Weed control from applications of an ethylene inhibitor and a pyridine carboxylic acid herbicide” (Dow AgroSciences LLC, priority 2015, dated 2018)
